For orientation: IC50 means the point on the concentration scale where inhibition reaches its midpoint.

The subject of data set [1] is Plasmodium falciparum. Kind of data set: Antimalarial activity against CQ/PYR/ATO resistant Plasmodium falciparum TM90C6B assessed as reduction in parasitemia measured after 72 hrs by SYBR Green I dye based fluorescence assay. It is filed as functional, organism-based.
Data set [2] is described as follows: Resistance index, ratio of IC50 for antimalarial activity against CQ/PYR/ATO resistant Plasmodium falciparum TM90C6B to IC50 for antimalarial activity against Plasmodium falciparum 3D7. It is filed as functional.
Data set [3] deals with Plasmodium falciparum. Kind of data set: Antimalarial activity against Plasmodium falciparum 3D7 assessed as reduction in parasitemia measured after 72 hrs by SYBR Green I dye based fluorescence assay. It is filed as functional, organism-based. The following applies: 3D7, 72 h.
The subject of data set [4] is Plasmodium falciparum. The experiment in a line: Antimalarial activity against CQ/SDX/PYR/MQ/CYC resistant Plasmodium falciparum Dd2 assessed as reduction in parasitemia measured after 72 hrs by SYBR Green I dye based fluorescence assay. To be noted: Dd2, 72 h. It is filed as functional, organism-based.
Data set [5] can be described thus: Resistance index, ratio of IC50 for antimalarial activity against CQ/SDX/PYR/MQ/CYC resistant Plasmodium falciparum Dd2 to IC50 for antimalarial activity against Plasmodium falciparum 3D7. It is filed as functional.
Data set [6] relates to Plasmodium falciparum. Kind of data set: Antimalarial activity against MMV848 resistant Plasmodium falciparum 3D7r_MMV848 assessed as reduction in parasitemia measured after 72 hrs by SYBR Green I dye based fluorescence assay. It is filed as functional, organism-based. The following applies: 3D7r_MMV848, 72 h.
The nature of data set [7]: Resistance index, ratio of IC50 for antimalarial activity against MMV848 resistant Plasmodium falciparum 3D7r_MMV848 to IC50 for antimalarial activity against Plasmodium falciparum 3D7. It is filed as functional.
A short description of data set [8]: Cytotoxicity against human HepG2 cells assessed as inhibition of cell growth incubated for 72 hrs by MTT assay. It is filed as toxicity, cell-based. On the technique in general: Tetrazolium dyes change colour on reduction, which living cells bring about.

Molecules are shown by their SMILES.

On to `CC(C)c1c(C(=O)Nc2ccccc2)c(-c2ccccc2)c(-c2ccc(F)cc2)n1CC[C@@H](O)C[C@@H](O)CC(=O)O` [ATORVASTATIN], for which, in the data set on Plasmodium falciparum [1], the IC50 is over 1 µM. In addition, the Ratio IC50 in data set [2] is over 1430.

As to `O=c1occ(-c2ccc(O)cc2)c2cc(O)ccc12`, the IC50 in the data set on Plasmodium falciparum [3] came out at 19 µM; in the data set on Plasmodium falciparum [4] it was 37 µM; in the data set on Plasmodium falciparum [1] it was 19 µM; in the data set with Plasmodium falciparum [6], 23 µM. The results for the Ratio IC50 in data set [5], in data set [2] and in data set [7] were 1.9, 1 and 1.2, respectively. In addition, the IC50 at 72 h in data set [8] is over 100 µM.

For `C[C@@H]1CC[C@H]2[C@@H](C)C(=O)O[C@@H]3O[C@@]4(C)CC[C@@H]1[C@]32OO4` [ARTEMISININ], the IC50 in the data set on Plasmodium falciparum [3] is 0.006 µM; with Plasmodium falciparum [4], 0.011 µM; in the data set on Plasmodium falciparum [6] it was 0.013 µM. Besides, the values for the Ratio IC50 in data set [5], in data set [2] and in data set [7] were 2, 1 and 2, respectively.

For the molecule `CCc1nc(N)nc(N)c1-c1ccc(Cl)cc1` [PYRIMETHAMINE], the IC50 in the data set on Plasmodium falciparum [3] was 0.06 µM; with Plasmodium falciparum [4] it was over 10 µM. Further, the Ratio IC50 in data set [5] is over 166.

For the origin of these results see ChEMBL document CHEMBL5321250, “Polyketide- and Terpenoid-Derived Metabolites Produced by a Marine-Derived Fungus, Peroneutypa sp” (J Nat Prod, 2023).
